Data as given in patent US5137922A (priority 1989, dated 1992).
Where two headings read alike, the source gives them in different places.

Assays:
[1] = tested on: virus; test: Electron microscope observation of virus suspension with EGCg; settings: EGCg added to suspension of the virus
Excerpt: The […] (PTA) dyeing method was utilized.

[2] = tested on: type B influenza virus; test: microbe, parasite or virus in culture; format: cell-based, B/USSA/100/83E; settings: unidentified influenza virus, read-out: percentage of inhibition against infection; for inhibition at 4 µg/mL: 5 min; for inhibition at 1 µg/mL: 1 h
[3] = molecular target: neuraminidase (NA) (Influenza B virus (B/USSR/100/83), UniProt P16205); format: biochemical, type B influenza virus, B/USSA/100/83E; settings: control 11.0
[4] = tested on: type A influenza virus; test: microbe, parasite or virus in culture; format: cell-based, A/Sichuan/2/87(H3N2)
[5] = molecular target: hemaglutinin (HA) (Influenza A virus (A/Sichuan/2/1987(H3N2)), UniProt H9XCU1); test: Hemaglutinin activity of type A influenza virus after treatment (agglutination of red blood cells); format: biochemical, A/Sichuan/2/87(H3N2); settings: FIG. 1, concentration dependence

Structure (SMILES) | behavior of the virus under electron microscope [1] | inhibition at 4 µg/mL [2] [%] | inhibition at 1 µg/mL [2] [%] | NA activity ([3]; 50 μg/ml) | NA activity ([3]; 100 μg/ml) | infection inhibiting power ([4]; FIG. 1, concentration dependence) | inhibition at 0.5 µg/mL ([4]; unidentified influenza virus, MDCK, 1 h, read-out: inhibition of infection) [%] | number of plaques ([4]; virus treated 1 hour, 0.5 μg/ml) | hemaglutinin activity inhibiting power [5]
O=C(O[C@@H]1Cc2c(O)cc(O)cc2O[C@@H]1c1cc(O)c(O)c(O)c1)c1cc(O)c(O)c(O)c1 [EGCg, (-)epigallocatechin gallate] | instantaneous formation of agglutinated lumps of the viruses | 100 | 100 | 8.00 | 5.10 | depend on the concentration | 100 | zero | depend on the concentration
O=C(O[C@@H]1Cc2c(O)cc(O)cc2O[C@@H]1c1cc(O)c(=O)c2c(O)c(O)cc([C@H]3Oc4cc(O)cc(O)c4C[C@H]3OC(=O)c3cc(O)c(O)c(O)c3)c2c1)c1cc(O)c(O)c(O)c1 [TF3, theaflavin digallate] |  | 100 | 100 |  |  |  |  |  | 
